Source: the NIST ThermoML archive (doi:10.1016/j.jct.2015.05.028)

Test: mn = molality of the nth substance listed, in mol/kg
Settings: 99.6 kPa, Liquid, Vibrating tube method

CCN1C(=O)N(CC)C2NC(=O)NC21 (stereo not given) + O
mass density [kg/m3]
Settings	278.15 K	288.15 K	298.15 K	308.15 K	318.15 K
m1 = 0.01158	1000.48	999.594	997.533	994.508	990.681
m1 = 0.01315	1000.54	999.667	997.589	994.565	990.747
m1 = 0.01794	1000.76	999.871	997.801	994.774	990.935
m1 = 0.02385	1001.02	1000.12	998.052	995.029	991.185
m1 = 0.02832	1001.21	1000.32	998.231	995.196	991.363
m1 = 0.03477	1001.5	1000.6	998.521	995.477	991.629
m1 = 0.04062	1001.76	1000.85	998.752	995.71	991.866
m1 = 0.04476	1001.95	1001.03	998.934	995.885	992.035
m1 = 0.04841	1002.11	1001.18	999.081	996.03	992.176
m1 = 0.0537	1002.35	1001.42	999.318	996.256	992.398
m1 = 0.05905	1002.58	1001.63	999.528	996.468	992.605
m1 = 0.06432	1002.81	1001.87	999.742	996.678	992.818
m1 = 0.06647	1002.9	1001.96	999.836	996.759	992.893
m1 = 0.06907	1003.01	1002.07	999.94	996.876	993.011
